Experiments:
[1] = target: Cyclin-dependent kinase 2 (Homo sapiens) (UniProt P24941); experiment: Inhibition of CDK2 at 10 uM by HTRF assay
[2] = target: Epidermal growth factor receptor (Homo sapiens) (UniProt P00533); experiment: Inhibition of EGFR at 10 uM by HTRF assay
[3] = target: Receptor tyrosine-protein kinase erbB-2 (Homo sapiens) (UniProt P04626); experiment: Inhibition of ErbB2 at 10 uM by HTRF assay
[4] = target: Insulin receptor (Homo sapiens) (UniProt P06213); experiment: Inhibition of InR at 10 uM by HTRF assay
[5] = target: Vascular endothelial growth factor receptor 1 (Homo sapiens, UniProt P17948); experiment: Inhibition of VEGFR1 assessed as blockade of pGAT-biotin phosphorylation in presence of 2 uM ATP by HTRF assay
Sequence of Vascular endothelial growth factor receptor 1 (P17948 whole entry, the tested form may be a part): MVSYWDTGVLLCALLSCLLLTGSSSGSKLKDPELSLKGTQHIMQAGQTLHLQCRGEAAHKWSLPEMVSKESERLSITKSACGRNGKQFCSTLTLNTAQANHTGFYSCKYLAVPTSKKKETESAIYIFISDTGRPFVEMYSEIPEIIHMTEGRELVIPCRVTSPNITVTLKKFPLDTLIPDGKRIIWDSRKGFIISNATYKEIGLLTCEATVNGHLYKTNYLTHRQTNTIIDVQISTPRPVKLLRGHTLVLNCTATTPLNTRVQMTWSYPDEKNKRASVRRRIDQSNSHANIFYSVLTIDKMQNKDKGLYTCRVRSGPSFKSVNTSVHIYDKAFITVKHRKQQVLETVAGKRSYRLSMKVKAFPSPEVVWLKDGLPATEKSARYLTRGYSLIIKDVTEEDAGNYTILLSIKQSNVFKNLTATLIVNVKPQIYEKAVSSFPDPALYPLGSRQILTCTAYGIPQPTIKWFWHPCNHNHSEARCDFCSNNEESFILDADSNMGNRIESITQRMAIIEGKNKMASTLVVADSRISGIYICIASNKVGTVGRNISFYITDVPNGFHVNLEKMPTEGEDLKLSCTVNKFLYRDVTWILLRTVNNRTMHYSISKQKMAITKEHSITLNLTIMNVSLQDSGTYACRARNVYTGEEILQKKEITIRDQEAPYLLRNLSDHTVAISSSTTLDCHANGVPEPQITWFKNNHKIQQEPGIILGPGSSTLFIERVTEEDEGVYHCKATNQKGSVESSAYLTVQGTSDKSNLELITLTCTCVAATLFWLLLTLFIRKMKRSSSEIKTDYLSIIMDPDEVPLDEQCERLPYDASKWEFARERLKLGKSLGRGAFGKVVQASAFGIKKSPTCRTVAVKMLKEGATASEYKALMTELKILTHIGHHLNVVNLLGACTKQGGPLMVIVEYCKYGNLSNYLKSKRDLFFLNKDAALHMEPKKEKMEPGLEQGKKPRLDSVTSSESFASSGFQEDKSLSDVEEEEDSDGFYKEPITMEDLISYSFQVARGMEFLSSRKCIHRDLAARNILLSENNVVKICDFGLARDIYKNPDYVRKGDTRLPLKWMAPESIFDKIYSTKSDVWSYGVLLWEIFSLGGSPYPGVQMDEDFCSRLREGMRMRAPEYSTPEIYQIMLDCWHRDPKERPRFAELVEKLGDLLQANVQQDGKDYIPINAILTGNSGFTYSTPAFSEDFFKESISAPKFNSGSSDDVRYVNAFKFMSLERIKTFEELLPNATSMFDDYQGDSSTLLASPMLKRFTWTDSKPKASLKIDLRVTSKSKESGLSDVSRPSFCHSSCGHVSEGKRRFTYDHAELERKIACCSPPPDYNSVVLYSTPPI

[6] = target: Bcr/Abl fusion protein (Homo sapiens) (UniProt P00519+P11274); experiment: Inhibition of bcr-Abl at 10 uM by HTRF assay; format: protein assay
[7] = target: Glycogen synthase kinase-3 beta (Homo sapiens) (UniProt P49841); experiment: Inhibition of GSK3-beta at 10 uM by HTRF assay
[8] = target: Hepatocyte growth factor receptor (Homo sapiens) (UniProt P08581); experiment: Inhibition of cMET at 10 uM by HTRF assay
Sequence of Hepatocyte growth factor receptor (Homo sapiens) (P08581 whole entry): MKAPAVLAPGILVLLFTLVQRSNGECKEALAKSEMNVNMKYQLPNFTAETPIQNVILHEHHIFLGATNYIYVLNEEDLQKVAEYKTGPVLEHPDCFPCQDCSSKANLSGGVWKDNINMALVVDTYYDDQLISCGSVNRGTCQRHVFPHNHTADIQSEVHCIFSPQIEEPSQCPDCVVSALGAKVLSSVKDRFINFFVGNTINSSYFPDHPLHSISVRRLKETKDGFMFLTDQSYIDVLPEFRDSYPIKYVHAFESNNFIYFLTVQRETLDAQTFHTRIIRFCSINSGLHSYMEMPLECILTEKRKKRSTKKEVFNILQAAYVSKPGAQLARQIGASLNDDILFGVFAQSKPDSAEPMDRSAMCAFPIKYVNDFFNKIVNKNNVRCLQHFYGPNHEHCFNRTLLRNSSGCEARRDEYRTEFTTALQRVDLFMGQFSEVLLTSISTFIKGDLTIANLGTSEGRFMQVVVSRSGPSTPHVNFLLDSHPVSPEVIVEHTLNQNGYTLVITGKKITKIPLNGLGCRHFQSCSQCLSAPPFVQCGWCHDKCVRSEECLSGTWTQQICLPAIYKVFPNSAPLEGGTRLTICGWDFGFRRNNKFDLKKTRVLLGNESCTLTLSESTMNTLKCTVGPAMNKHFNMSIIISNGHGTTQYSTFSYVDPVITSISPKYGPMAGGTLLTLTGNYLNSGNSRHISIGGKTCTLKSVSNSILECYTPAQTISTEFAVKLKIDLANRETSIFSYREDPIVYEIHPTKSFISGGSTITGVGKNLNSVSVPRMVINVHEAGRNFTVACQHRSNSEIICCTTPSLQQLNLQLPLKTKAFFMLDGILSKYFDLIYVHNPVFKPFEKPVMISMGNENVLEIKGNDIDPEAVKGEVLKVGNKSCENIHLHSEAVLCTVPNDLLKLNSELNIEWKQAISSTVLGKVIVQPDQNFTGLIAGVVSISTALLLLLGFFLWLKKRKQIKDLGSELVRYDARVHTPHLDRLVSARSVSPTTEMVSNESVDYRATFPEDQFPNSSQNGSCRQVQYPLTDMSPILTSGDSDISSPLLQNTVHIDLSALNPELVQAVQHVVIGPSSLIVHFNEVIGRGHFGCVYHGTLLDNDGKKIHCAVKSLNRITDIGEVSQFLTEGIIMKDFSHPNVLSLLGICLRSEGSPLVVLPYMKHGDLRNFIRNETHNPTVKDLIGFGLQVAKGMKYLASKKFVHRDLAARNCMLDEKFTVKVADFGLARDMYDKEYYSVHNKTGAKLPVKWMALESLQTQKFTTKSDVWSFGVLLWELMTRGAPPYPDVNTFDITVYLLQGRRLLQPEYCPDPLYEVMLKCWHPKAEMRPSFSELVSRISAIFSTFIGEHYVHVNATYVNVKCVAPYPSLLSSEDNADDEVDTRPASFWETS

[9] = target: Macrophage-stimulating protein receptor (Homo sapiens) (UniProt Q04912); experiment: Inhibition of Ron at 10 uM by HTRF assay
[10] = target: T1, Vascular endothelial growth factor receptor 2 (Homo sapiens, UniProt P35968); experiment: Inhibition of VEGFR2 assessed as blockade of pGAT-biotin phosphorylation in presence of 2 uM ATP by HTRF assay
[11] = Inhibition of PKA at 10 uM by HTRF assay
[12] = target: Fibroblast growth factor receptor 1 (Homo sapiens) (UniProt P11362); experiment: Inhibition of FGFR1 at 10 uM by HTRF assay
[13] = target: Cyclin-dependent kinase 1 (Homo sapiens) (UniProt P06493); experiment: Inhibition of CDK1 at 10 uM by HTRF assay
[14] = target: Proto-oncogene tyrosine-protein kinase Src (Homo sapiens) (UniProt P12931); experiment: Inhibition of Src at 10 uM by HTRF assay
Sequence of Proto-oncogene tyrosine-protein kinase Src (Homo sapiens) (P12931 2-536 limits assumed): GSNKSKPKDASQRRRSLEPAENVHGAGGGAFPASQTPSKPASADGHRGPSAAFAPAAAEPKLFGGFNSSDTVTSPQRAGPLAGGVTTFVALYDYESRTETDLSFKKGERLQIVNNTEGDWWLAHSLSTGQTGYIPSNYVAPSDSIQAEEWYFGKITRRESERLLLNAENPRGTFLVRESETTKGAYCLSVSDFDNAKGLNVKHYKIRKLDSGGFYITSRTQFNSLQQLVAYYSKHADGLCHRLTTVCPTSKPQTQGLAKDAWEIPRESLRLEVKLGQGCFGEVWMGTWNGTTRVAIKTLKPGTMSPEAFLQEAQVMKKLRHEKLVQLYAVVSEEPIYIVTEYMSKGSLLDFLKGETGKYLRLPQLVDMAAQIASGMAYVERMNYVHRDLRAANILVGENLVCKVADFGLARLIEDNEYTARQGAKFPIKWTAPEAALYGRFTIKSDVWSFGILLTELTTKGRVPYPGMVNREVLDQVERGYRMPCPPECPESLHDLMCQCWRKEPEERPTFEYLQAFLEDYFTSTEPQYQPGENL

[15] = target: Receptor-type tyrosine-protein kinase FLT3 (Homo sapiens) (UniProt P36888); experiment: Inhibition of Flt3 at 10 uM by HTRF assay
[16] = target: Aurora kinase B (Homo sapiens) (UniProt Q96GD4); experiment: Inhibition of Aurora B at 10 uM by HTRF assay
Sequence of Aurora kinase B (Homo sapiens) (Q96GD4 whole entry): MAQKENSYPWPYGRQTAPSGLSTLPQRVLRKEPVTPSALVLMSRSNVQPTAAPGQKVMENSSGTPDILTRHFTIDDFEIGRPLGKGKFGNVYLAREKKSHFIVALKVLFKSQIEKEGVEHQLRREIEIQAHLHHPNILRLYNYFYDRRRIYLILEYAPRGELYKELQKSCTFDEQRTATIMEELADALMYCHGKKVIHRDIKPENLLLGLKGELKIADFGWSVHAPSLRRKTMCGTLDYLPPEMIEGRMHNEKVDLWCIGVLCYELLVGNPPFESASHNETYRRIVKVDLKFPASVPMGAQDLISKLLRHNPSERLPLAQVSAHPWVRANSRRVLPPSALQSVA

[17] = Inhibition of Bcr-Abl T315 mutant at 10 uM by HTRF assay
[18] = target: Serine/threonine-protein kinase PLK1 (Homo sapiens) (UniProt P53350); experiment: Inhibition of Plk1 at 10 uM by HTRF assay
[19] = Intrinsic permeability across human Caco-2 cells
[20] = target: T2, Aurora kinase A (Homo sapiens) (UniProt O14965); experiment: Inhibition of Aurora A at 10 uM by HTRF assay
T2 sequence (whole entry): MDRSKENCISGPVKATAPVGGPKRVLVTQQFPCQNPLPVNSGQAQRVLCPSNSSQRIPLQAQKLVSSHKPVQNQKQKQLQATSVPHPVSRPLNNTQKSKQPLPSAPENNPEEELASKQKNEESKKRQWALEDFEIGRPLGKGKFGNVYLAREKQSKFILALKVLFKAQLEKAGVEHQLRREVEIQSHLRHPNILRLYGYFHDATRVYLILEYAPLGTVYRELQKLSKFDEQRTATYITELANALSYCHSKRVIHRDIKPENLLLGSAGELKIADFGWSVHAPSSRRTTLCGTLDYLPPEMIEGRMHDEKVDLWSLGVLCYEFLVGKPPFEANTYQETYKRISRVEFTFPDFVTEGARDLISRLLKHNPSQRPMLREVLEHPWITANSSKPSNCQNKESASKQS

[21] = target: Insulin-like growth factor 1 receptor (Homo sapiens) (UniProt P08069); experiment: Inhibition of IGF1R at 10 uM by HTRF assay
[22] = target: T1, Vascular endothelial growth factor receptor 2; experiment: Inhibition of VEGFR2 expressed in HEK293 cells assessed as inhibition of receptor phosphorylation by ELISA; format: cell-based
[23] = target: T1, Vascular endothelial growth factor receptor 2; experiment: Inhibition of VEGFR2 at IC90 concentration by ATP based competition assay
[24] = target: T1, Vascular endothelial growth factor receptor 2; experiment: Inhibition of VEGFR2 at IC50 concentration by ATP based competition assay

Sequence of Receptor tyrosine-protein kinase erbB-2 (Homo sapiens) (P04626 whole entry): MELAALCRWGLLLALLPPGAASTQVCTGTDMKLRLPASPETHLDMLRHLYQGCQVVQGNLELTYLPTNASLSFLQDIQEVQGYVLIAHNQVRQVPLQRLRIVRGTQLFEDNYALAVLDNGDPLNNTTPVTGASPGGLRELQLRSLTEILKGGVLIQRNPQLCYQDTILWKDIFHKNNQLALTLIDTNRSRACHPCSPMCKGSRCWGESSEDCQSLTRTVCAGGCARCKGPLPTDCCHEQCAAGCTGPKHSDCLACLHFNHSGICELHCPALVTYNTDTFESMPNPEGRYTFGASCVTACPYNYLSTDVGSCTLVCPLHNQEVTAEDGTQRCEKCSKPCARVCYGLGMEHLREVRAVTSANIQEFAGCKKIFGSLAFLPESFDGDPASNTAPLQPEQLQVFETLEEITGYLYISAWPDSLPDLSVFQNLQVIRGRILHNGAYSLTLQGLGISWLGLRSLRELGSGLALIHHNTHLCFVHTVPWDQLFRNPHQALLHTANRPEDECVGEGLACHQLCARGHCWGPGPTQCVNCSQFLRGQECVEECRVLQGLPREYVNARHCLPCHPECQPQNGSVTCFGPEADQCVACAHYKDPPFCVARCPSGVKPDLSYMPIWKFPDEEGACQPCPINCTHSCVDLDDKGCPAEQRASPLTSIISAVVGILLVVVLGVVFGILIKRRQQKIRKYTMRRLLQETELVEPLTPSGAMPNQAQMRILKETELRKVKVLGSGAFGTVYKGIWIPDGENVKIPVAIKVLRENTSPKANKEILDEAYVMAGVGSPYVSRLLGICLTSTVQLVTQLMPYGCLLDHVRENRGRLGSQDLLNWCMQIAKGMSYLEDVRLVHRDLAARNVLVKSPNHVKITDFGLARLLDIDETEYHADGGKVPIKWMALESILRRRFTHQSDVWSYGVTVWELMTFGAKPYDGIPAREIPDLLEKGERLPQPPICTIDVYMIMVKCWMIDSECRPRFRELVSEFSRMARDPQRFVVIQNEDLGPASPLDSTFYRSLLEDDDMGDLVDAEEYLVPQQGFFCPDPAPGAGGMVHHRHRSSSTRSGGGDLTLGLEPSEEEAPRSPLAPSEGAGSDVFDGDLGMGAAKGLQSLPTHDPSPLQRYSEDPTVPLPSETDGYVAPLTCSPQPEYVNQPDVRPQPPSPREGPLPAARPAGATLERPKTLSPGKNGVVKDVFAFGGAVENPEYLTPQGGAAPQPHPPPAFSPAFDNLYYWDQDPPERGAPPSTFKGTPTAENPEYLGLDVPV

SMILES | inhibition [1] | inhibition [2] | inhibition [3] | inhibition [4] | IC50 [5] | inhibition [6] | inhibition [7] | inhibition [8] | inhibition [9] | IC50 [10] | inhibition [11] | inhibition [12] | inhibition [13] | inhibition [14] | inhibition [15] | inhibition [16] | inhibition [17] | inhibition [18] | Papp [19] | inhibition [21] | further results
O=C(Nc1cccc(OC(F)(F)F)c1)c1nscc1NCc1ccncc1 | < 30% | < 30% | < 30% | < 30% | 260 nM | < 30% | < 30% | < 30% | < 30% | 33 nM | < 30% | < 30% | < 30% | < 30% | < 30% | < 30% | < 30% | < 30% | 7.93 ×10⁻⁶ cm/s | < 30% | inhibition [20]: < 30%; IC50 [22]: 41 nM
O=C(Nc1cccc(C(F)(F)F)c1)c1nscc1NCc1ccncc1 | < 30% | < 30% | < 30% | < 30% | 170 nM | < 30% | < 30% | < 30% | < 30% | 41 nM | < 30% | < 30% | < 30% | < 30% | < 30% | < 30% | < 30% | < 30% | 6.98 ×10⁻⁶ cm/s | < 30% | Ki [23]: 130 nM; inhibition [20]: < 30%; IC50 [22]: 54 nM; Ki [24]: 160 nM
O=C(Nc1ccc(Br)cc1)c1nscc1NCc1ccncc1 | < 30% | < 30% | < 30% | < 30% | 260 nM | < 30% | < 30% | < 30% | < 30% | 230 nM | < 30% | < 30% | < 30% | < 30% | < 30% | < 30% | < 30% | < 30% | – | < 30% | Ki [23]: 70 nM; inhibition [20]: < 30%; IC50 [22]: 1040 nM; Ki [24]: 90 nM
Cc1ccc(NC(=O)c2nscc2NCc2ccncc2)cc1C(F)(F)F | < 30% | < 30% | < 30% | < 30% | 190 nM | < 30% | < 30% | < 30% | < 30% | 43 nM | < 30% | < 30% | < 30% | < 30% | < 30% | < 30% | < 30% | < 30% | 5.9 ×10⁻⁶ cm/s | < 30% | inhibition [20]: < 30%; IC50 [22]: 56 nM
O=C(Nc1cccc(C(F)(F)F)c1)c1nscc1NCc1ccnc2ccccc12 | < 30% | < 30% | < 30% | < 30% | – | < 30% | < 30% | < 30% | < 30% | – | < 30% | < 30% | < 30% | < 30% | < 30% | – | < 30% | – | 2.72 ×10⁻⁶ cm/s | < 30% | –

From ChEMBL document CHEMBL1136839, “3,4-Disubstituted isothiazoles: novel potent inhibitors of VEGF receptors 1 and 2” (Bioorg Med Chem Lett, 2009)
